For 20 compounds, Activity, viability and fold change (FC) results are on record in ChEMBL document CHEMBL4732258, “Pyxinol bearing amino acid residues: Easily achievable and promising modulators of P-glycoprotein-mediated multidrug resistance” (Eur J Med Chem, 2021).

Type in all cases: cell-based
Data set [1] concerns KBV. Put plainly: Reversal of Pgp-mediated paclitaxel resistance in human KBV cells assessed as cell viability at 10 uM in presence of paclitaxel incubated for 72 hrs by MTT assay.
Data set [2] has as its system KBV. Put plainly: Reversal of Pgp-mediated paclitaxel resistance in human KBV cells assessed as cell viability at 5 uM in presence of paclitaxel incubated for 72 hrs by MTT assay.
Data set [3] can be described thus: Cytotoxicity against human KBV cells assessed as cell viability at 10 uM incubated for 72 hrs by MTT assay. The following applies: read-out: Activity.
Data set [4] deals with KBV. Put plainly: Reversal of Pgp-mediated multidrug resistance in human KBV cells assessed as fold change in paclitaxel IC50 at 10 uM after 72 hrs in presence of paclitaxel by MTT assay relative to control.
The test system of data set [5] is KBV. As to the kind of experiment: Reversal of Pgp-mediated multidrug resistance in human KBV cells assessed as fold change in paclitaxel IC50 at 5 uM after 72 hrs in presence of paclitaxel by MTT assay relative to control.

Regarding `C[C@@H](OCc1ccccc1)[C@H](N)C(=O)O[C@H]1CC[C@]2(C)[C@H]3C[C@@H](O)[C@@H]4[C@@H]([C@]5(C)CC[C@@H](C(C)(C)O)O5)CC[C@@]4(C)[C@]3(C)CC[C@H]2C1(C)C`, the Activity in data set [1] (filed as modulator) turned out to be 30%; in data set [2] (filed as modulator) it was 46%. Also, the viability at 72 h, 10 µM in data set [3] worked out at 102%.
Take `CC(C)(O)[C@H]1CC[C@@](C)([C@H]2CC[C@]3(C)[C@@H]2[C@H](O)C[C@@H]2[C@@]4(C)CC[C@H](OC(=O)[C@@H](N)Cc5ccc(O)cc5)C(C)(C)[C@@H]4CC[C@]23C)O1`: the Activity in data set [1] (filed as modulator) was found to be 27%; in data set [2] (filed as modulator), 28%. Further, in data set [3], the viability at 72 h, 10 µM is 87%.
The like results for `CC(C)(C)OC(=O)N[C@@H](Cc1ccccc1)C(=O)O[C@H]1CC[C@]2(C)[C@H]3C[C@@H](O)[C@@H]4[C@@H]([C@]5(C)CC[C@@H](C(C)(C)O)O5)CC[C@@]4(C)[C@]3(C)CC[C@H]2C1(C)C` were, in that order, 16%, 17% and 17%.
Turning to `CC(C)(C)OC(=O)N[C@@H](Cc1ccc(OC(C)(C)C)cc1)C(=O)O[C@H]1CC[C@]2(C)[C@H]3C[C@@H](O)[C@@H]4[C@@H]([C@]5(C)CC[C@@H](C(C)(C)O)O5)CC[C@@]4(C)[C@]3(C)CC[C@H]2C1(C)C`, the Activity in data set [1] (filed as modulator) was determined as 22%; in data set [2], 78%. Moreover, the viability at 72 h, 10 µM in data set [3] worked out at 104%.
On to `CSCC[C@H](N)C(=O)O[C@H]1CC[C@]2(C)[C@H]3C[C@@H](O)[C@@H]4[C@@H]([C@]5(C)CC[C@@H](C(C)(C)O)O5)CC[C@@]4(C)[C@]3(C)CC[C@H]2C1(C)C`, for which the fold change (FC) in data set [4] was 6; in data set [5] it was 0.4. The Activity was 31% in data set [1] (filed as modulator) and 56% in data set [2]. In data set [3], the viability at 72 h, 10 µM came out at 100%.
Take `CSCC[C@H](N)C(=O)O[C@H]1CC[C@]2(C)[C@H]3C[C@@H](O)[C@@H]4[C@@H]([C@]5(C)CC[C@H](C(C)(C)O)O5)CC[C@@]4(C)[C@]3(C)CC[C@H]2C1(C)C`: the fold change (FC) in data set [4] turned out to be 34; in data set [5] it was 17. In addition, the Activity in data set [1] (filed as modulator) worked out at 23%; in data set [2] (filed as modulator), 26%. Also, in data set [3], the viability at 72 h, 10 µM is 90%.
For `CC(C)(O)[C@H]1CC[C@@](C)([C@H]2CC[C@]3(C)[C@@H]2[C@H](O)C[C@@H]2[C@@]4(C)CC[C@H](OC(=O)[C@@H](N)CCCCN)C(C)(C)[C@@H]4CC[C@]23C)O1`, the Activity in data set [1] (filed as modulator) is 29%; in data set [2] it was 85%. The viability at 72 h, 10 µM in data set [3] came out at 45%.
With `CC(C)[C@H](NC(=O)OC(C)(C)C)C(=O)O[C@H]1CC[C@]2(C)[C@H]3C[C@@H](O)[C@@H]4[C@@H]([C@]5(C)CC[C@H](C(C)(C)O)O5)CC[C@@]4(C)[C@]3(C)CC[C@H]2C1(C)C`, the Activity was found to be 20% in data set [1] (filed as modulator) and 31% in data set [2] (filed as modulator). The viability at 72 h, 10 µM in data set [3] amounted to 120%.
As to `CC(C)(C)OC(=O)N[C@@H](Cc1cn(C(=O)OC(C)(C)C)c2ccccc12)C(=O)O[C@H]1CC[C@]2(C)[C@H]3C[C@@H](O)[C@@H]4[C@@H]([C@]5(C)CC[C@@H](C(C)(C)O)O5)CC[C@@]4(C)[C@]3(C)CC[C@H]2C1(C)C`, the Activity came out at 147% in data set [1] and 138% in data set [2]. In addition, in data set [3], the viability at 72 h, 10 µM came to 137%.
On to `CC(C)(O)[C@@H]1CC[C@@](C)([C@H]2CC[C@]3(C)[C@@H]2[C@H](O)C[C@@H]2[C@@]4(C)CC[C@H](OC(=O)[C@@H](N)Cc5ccc(O)cc5)C(C)(C)[C@@H]4CC[C@]23C)O1`, for which the Activity came to 35% in data set [1] (filed as modulator) and 87% in data set [2]. Moreover, the viability at 72 h, 10 µM in data set [3] was determined as 97%.
For `CC(C)(O)[C@H]1CC[C@@](C)([C@H]2CC[C@]3(C)[C@@H]2[C@H](O)C[C@@H]2[C@@]4(C)CC[C@H](O)C(C)(C)[C@@H]4CC[C@]23C)O1`, the Activity in data set [1] was determined as 63%; in data set [2], 83%. In addition, the viability at 72 h, 10 µM in data set [3] turned out to be 91%.
The corresponding values for `CC(C)(O)[C@@H]1CC[C@@](C)([C@H]2CC[C@]3(C)[C@@H]2[C@H](O)C[C@@H]2[C@@]4(C)CC[C@H](OC(=O)[C@@H](N)CCC(=O)O)C(C)(C)[C@@H]4CC[C@]23C)O1` are 92%, 95% and 112%.
The like results for `CC(C)(C)OC(=O)N[C@@H](Cc1cn(C(=O)OC(C)(C)C)c2ccccc12)C(=O)O[C@H]1CC[C@]2(C)[C@H]3C[C@@H](O)[C@@H]4[C@@H]([C@]5(C)CC[C@H](C(C)(C)O)O5)CC[C@@]4(C)[C@]3(C)CC[C@H]2C1(C)C` were, in that order, 161%, 165% and 132%.
For the compound `CC(C)(C)OC(=O)CC[C@H](NC(=O)OC(C)(C)C)C(=O)O[C@H]1CC[C@]2(C)[C@H]3C[C@@H](O)[C@@H]4[C@@H]([C@]5(C)CC[C@@H](C(C)(C)O)O5)CC[C@@]4(C)[C@]3(C)CC[C@H]2C1(C)C`, the figures for the Activity in data set [1] (filed as modulator) and in data set [2] (filed as modulator) were 17% and 19%, respectively. Further, the viability at 72 h, 10 µM in data set [3] is 46%.
The like results for `CC(C)(O)[C@H]1CC[C@@](C)([C@H]2CC[C@]3(C)[C@@H]2[C@H](O)C[C@@H]2[C@@]4(C)CC[C@H](OC(=O)[C@@H](N)Cc5ccccc5)C(C)(C)[C@@H]4CC[C@]23C)O1` were, in that order, 21%, 26% and 74%.
The corresponding values for `CC(C)(C)OC(=O)CC[C@H](NC(=O)OC(C)(C)C)C(=O)O[C@H]1CC[C@]2(C)[C@H]3C[C@@H](O)[C@@H]4[C@@H]([C@]5(C)CC[C@H](C(C)(C)O)O5)CC[C@@]4(C)[C@]3(C)CC[C@H]2C1(C)C` are 19%, 31% and 82%.
The like results for `CC(C)(C)OC(=O)NCCCC[C@H](NC(=O)OC(C)(C)C)C(=O)O[C@H]1CC[C@]2(C)[C@H]3C[C@@H](O)[C@@H]4[C@@H]([C@]5(C)CC[C@@H](C(C)(C)O)O5)CC[C@@]4(C)[C@]3(C)CC[C@H]2C1(C)C` were, in that order, 21%, 28% and 123%.
As for `CC(C)[C@H](N)C(=O)O[C@H]1CC[C@]2(C)[C@H]3C[C@@H](O)[C@@H]4[C@@H]([C@]5(C)CC[C@H](C(C)(C)O)O5)CC[C@@]4(C)[C@]3(C)CC[C@H]2C1(C)C`, the figures for the Activity in data set [1] (filed as modulator) and in data set [2] (filed as modulator) were 23% and 33%, respectively. Moreover, in data set [3], the viability at 72 h, 10 µM worked out at 84%.
For `C[C@@H](OCc1ccccc1)[C@H](NC(=O)OC(C)(C)C)C(=O)O[C@H]1CC[C@]2(C)[C@H]3C[C@@H](O)[C@@H]4[C@@H]([C@]5(C)CC[C@@H](C(C)(C)O)O5)CC[C@@]4(C)[C@]3(C)CC[C@H]2C1(C)C`, the Activity in data set [1] (filed as modulator) stood at 19%; in data set [2] (filed as modulator), 24%. In addition, in data set [3], the viability at 72 h, 10 µM came out at 76%.
The like results for `CC(C)(O)[C@H]1CC[C@@](C)([C@H]2CC[C@]3(C)[C@@H]2[C@H](O)C[C@@H]2[C@@]4(C)CC[C@H](OC(=O)CN)C(C)(C)[C@@H]4CC[C@]23C)O1` were, in that order, 28%, 43% and 106%.
